# Assay results as given in patent US9447083B2, “N-acylhydrazone derivatives for selective T cell inhibitor and anti-lymphoid malignancy drug” (CHONG KUN DANG PHARMACEUTICAL CORP., priority 2012, dated 2016).
# Values joined by “and” are separate entries in the source; they are usually repeats but may differ in a detail not shown here. Equal entries are not always repeated.
# Tests used:
# [1] = tested on: acute graft-versus-host disease; assay: Acute graft-versus-host disease, mouse model of allogeneic bone marrow transplantation; assay type: in vivo; conditions: 25 mg/kg intraperitoneally daily for 10 days
# Source text: Lymph nodes, spleens, both femurs and tibias were aseptically collected from normal C57BL/6 mice (8-12 week old, female, 20-23 g), and T cells were isolated from the lymph nodes and spleens in the same manner as described in Experimental Example 2 and were re-suspended in PBS at a concentration of 8×10^7 cells/mL. The femurs and tibias were cut at the ends, and the bone marrow was flushed from femurs and tibias with RPMI medium using a syringe (21G for femur and 26G for tibia) to extract the marrow, which was then suspended and passed through a cell strainer to make a single cell suspension. The bone marrow cell suspension was centrifuged at 1200 rpm for 5 minutes, and the supernatant was removed, then the cells were added to 1 mL of ACK lysis buffer and vortexed for 1 minute, followed by washing with RPMI medium. […] The incubated cell suspension was added with 5 mL of MACS buffer, centrifuged for 5 minutes, washed, and then re-suspended in 2 mL of MACS buffer. The suspended cells were placed in the autoMACS Pro Separator, and T cells bound to the CD90.2 microbeads were removed. The separated T cell-depleted bone marrow cells (TCD-BM) were washed with PBS and re-suspended in PBS at a concentration of 1×10^8 cells/mL. Normal BDF1 mice (10-12 week old, female, 20-23 g) were irradiated with 850 rad of γ radiation using an irradiator, and then 100 μL of a graft obtained by mixing the C57BL/6 mouse T cells and the TCD-BM at a ratio of 1:1 was injected into the tail vein of the BDF1 mice. In a group treated with compound 229 of the present invention, compound 229 was completely dissolved in a Cremophor EL-ethanol mixture (1:1, v/v) in an amount corresponding to 15% (v/v) of the administration volume, after which the compound solution was diluted in PBS, and the dilution was administered intraperitoneally to each mouse at a dose of 25 mg/kg daily for 10 days from the day of the graft injection. Meanwhile, Tacrolimus that is a currently clinically used immunosuppressive agent was administered to mice of another group in the same amount as compound 229 in order to compare the inhibitory effect on acute graft-versus-host disease, and mice of a vehicle control group were administered with 200 μL of a Cremophor EL-ethanol-PBS (7.5:7.5:85, v/v/v) in the same manner as the treated groups. Then, the survival of mice was monitored daily, and the severity of GVHD was assessed twice a week with clinical GVHD scoring system for each a decrease in weight loss, hunched posture, decreased activity, fur ruffling and skin lesions. Each parameters were scored on a 3-point (0 to 2) scale.
# Jurkat = assay: Apoptosis of lymphoid malignancy cell lines (Annexin V / 7-AAD): Jurkat; assay type: cell-based; conditions: Homo sapiens, Acute T cell leukemia, 24 hours, read-out: Administration Dose (mean ± SD, μmol/L) Lethal Dose 50 (Apoptosis)
# Procedure: (§1) Each of the acute T cell leukemia cell lines Jurkat, Molt4 and CCRF-CEM, the acute B cell leukemia cell line Raji and the […] cell lines KMS11, KMS12BM, KMS26, KMS28BM, and IM9 was re-suspended in 10% FBS-containing RPMI medium at a concentration of 1.5×10^5 cells/mL, and 200 μL of each of the cell suspensions was cultured in a flat bottom 96-well plate (Costar). The acute NK cell lymphoma cell line NK-92MI was re-suspended in α-MEM medium (supplemented with 20% FBS, 1×MEM vitamine solution, 50 μM 2-mercaptoethanol and 1× penicillin/streptomycin) at a concentration of 1.5×10^5 cells/mL, and 200 μL of the cell suspension was cultured in a flat bottom 96-well plate. The cells in each well was treated with 10 μL of each of 0.1, 0.25, 0.5, 0.75 and 1 μM of the compound diluted with RPMI medium, followed by that the cells were incubated in a 5% CO2 incubator at 37° C. for 24 hours. In a vehicle control group, cells were treated with 10 μL of medium containing 0.05% dimetylsulfoxide (DMSO, Sigma).
# (§2) The cells were collected, and then the apoptosis thereof was analyzed by a flow cytometer after staining with Annexin V-7-AAD. The incubated cells were collected, placed in a 5-mL FACS tube (BD Falcon) and washed with 1 mL of fluorescence activated cell sorting (FACS) buffer (1%. FBS and 0.1% sodium azaide in PBS). The cells were re-suspended in 0.1 mL of FACS buffer, followed by that the cells were treated and stained with phycoerythrin-Annexin V at room temperature for 10 minutes. After 10 minutes of staining, the cells were treated and stained with 7-AAD at room temperature for 5 minutes. The stained cells were suspended in 0.3 mL of FACS buffer, and then analyzed by a flow cytometer. […] Thus, compounds 065, 108, 229 and 457 of the present invention can be used as a novel anti-lymphoid malignancy drug.
# Molt4 = assay: Apoptosis of lymphoid malignancy cell lines: Molt4; assay type: cell-based; conditions: Homo sapiens, MOLT-4, 24 h, read-out: Administration Dose (mean ± SD, μmol/L) Lethal Dose 50 (Apoptosis)
# Procedure: as §1, §2
# IM9 = assay: Apoptosis of lymphoid malignancy cell lines: IM9; assay type: cell-based; conditions: Homo sapiens, IM-9, 24 h, read-out: Administration Dose (mean ± SD, μmol/L) Lethal Dose 50 (Apoptosis)
# Procedure: as §1, §2
# KMS12BM = assay: Apoptosis of lymphoid malignancy cell lines: KMS12BM; assay type: cell-based; conditions: Homo sapiens, KMS-12-BM, Multiple myeloma, 24 hours, read-out: Administration Dose (mean ± SD, μmol/L) Lethal Dose 50 (Apoptosis)
# Procedure: as §1, with “In a vehicle control group, cells were treated with 10 μL of medium containing 0.05% dimetylsulfoxide (DMSO, Sigma).” left out
# (§3) The cells were collected, and then the apoptosis thereof was analyzed by a flow cytometer after staining with Annexin V-7-AAD. The incubated cells were collected, placed in a 5-mL FACS tube (BD Falcon) and washed with 1 mL of fluorescence activated cell sorting (FACS) buffer (1%. FBS and 0.1% sodium azaide in PBS). […] The stained cells were suspended in 0.3 mL of FACS buffer, and then analyzed by a flow cytometer. […]
# KMS26 = assay: Apoptosis of lymphoid malignancy cell lines: KMS26; assay type: cell-based; conditions: KMS-26; KMS26, Multiple myeloma, 24 hours; read-out: Administration Dose (mean ± SD, μmol/L) Lethal Dose 50 (Apoptosis)
# Procedure: as §1, with “In a vehicle control group, cells were treated with 10 μL of medium containing 0.05% dimetylsulfoxide (DMSO, Sigma).” left out
# as §3
# KMS28BM = assay: Apoptosis of lymphoid malignancy cell lines: KMS28BM; assay type: cell-based; conditions: KMS-28BM, Multiple myeloma, 24 hours, read-out: Administration Dose (mean ± SD, μmol/L) Lethal Dose 50 (Apoptosis)
# Procedure: as §1, with “In a vehicle control group, cells were treated with 10 μL of medium containing 0.05% dimetylsulfoxide (DMSO, Sigma).” left out
# as §3
compound,measurement,setting,value
"Cc1cc(C)c(OCC(=O)N/N=C/c2ccc3cc[nH]c3c2)c(C2CCOC2)c1 (stereo not drawn) [Compound 229, (E)-N′-((1H-indol-6-yl)methylene)-2-(2,4-dimethyl-6-(tetrahydrofuran-3-yl)phenoxy)acetohydrazide]",severity of GVHD (clinical scoring system),[1],slight symptoms of GVHD
same,survival rate,"[1]; final (day 70), vehicle 10%",80%
same,"mouse death, days after cell transplantation",[1]; vehicle from 29 days,35 days and 46 days
same,EC50,Jurkat,0.62 µmol/L
same,EC50,Molt4,1.3 ± 0.05 µmol/L
same,EC50,IM9,0.9 ± 0.03 µmol/L
same,EC50,KMS12BM,0.94 ± 0.09 µmol/L
same,EC50,KMS26,1.31 ± 0.35 µmol/L
same,EC50,KMS28BM,0.49 ± 0.08 µmol/L
